Here are results for one compound from ChEMBL document CHEMBL1154895, “Cytotoxic neoclerodane diterpenoids from Scutellaria barbata” (J Nat Prod, 2010).

One may read the IC50 as the midpoint of a concentration-inhibition curve. Lower therefore signals greater potency.

The subject of this assay is SK-BR-3. The assay can be described thus: Cytotoxicity against human SK-BR-3 cells after 48 hrs by MTT assay. The class given is functional, cell-based. The note with it: SK-BR-3, 48 h. A general note: Tetrazolium dyes change colour on reduction, which living cells bring about.

`CC(=O)O[C@@H](CC1=C(O)C(=O)OC1)[C@]1(C)[C@H]2CCC=C(C)[C@]2(C)[C@@H](OC(=O)c2ccccc2)[C@H](OC(=O)c2ccccc2)[C@]1(C)O` (mixture of isomers) [SCUTEBATA A] returned a half-maximal inhibitory concentration (IC50) of 15.2 µM.
